Measurements taken from patent publication US20210246505A1, “COMPOSITIONS & METHODS FOR MONITORING DNA REPAIR” (MEMORIAL SLOAN KETTERING CANCER CENTER, priority 2018, published 2021).

Columns and labels:
Assay type in all cases: cell-based, human
[1] = system: HEK293T cells; assay: DSBR-seq of a Cas9 break at the AAVS1 locus, HEK293T cells
Source text: In this Example, transfection of the pX330 plasmid, containing the Cas9 and guide RNA (gRNA) expression cassettes to the AAVS1 safe locus, is used. Genomic DNA (gDNA) is collected 3 days post-transfection. To asses—DNA repair by HR, a donor template containing three substitutions around the protospacer adjacent motif (PAM) which limits cut-recut cycles is transfected also. A 500 bp amplicon surrounding the break is used for rapid measurement of DSBR errors via the widely used T7 endonuclease I assay. A 201 bp amplicon surrounding the cut site, but outside of the HR template is amplified, purified via E-gel electrophoresis system, converted into Illumina sequencing libraries, quantified via qPCR, and then sequenced at 200,000× read depth using paired end 150 bp (PE150) Mi-Seq. Unique, nonsingleton reads (occurring more than once) are aligned to the reference sequence using pairwise alignment (for example using Python). The indels and substitutions are cataloged relative to the break site and microhomology (MH) is determined (for example using an internally developed and validated algorithm, see FIG. 8). The reads are categorized as consequences of NHEJ (≤5 bp deletion) or MMEJ (>5 bp deletion with >2 bp MH). The donor template DNA contains key substitutions—thereby providing a readout of HR. These experiments are also performed in cells that are isogenic knockout controls of key NHEJ, MMEJ and HR components and using pharmacologic controls in which DNA-PKcs, RAD51, and PARP are inhibited […]. By comparing the experimental reads against those obtained from the knockout controls and/or pharmacologic controls, the specific reads dependent on each pathway were discovered. (FIG. 1). Thus, these methods involve empirically-determined deletion profiles, derived from known controls deficient in each pathway, as signatures to clearly separate and quantify DSBR events occurring by HR, NHEJ and MMEJ. The single double strand break allows for direct analysis of pathway choice in a native genomic location with a blunt-ended DSB. Because both cell cycle dependent pathways (MMEJ and […]) are measured in the same experiment, there is an effective built-in control for confounding cell cycle effects on the use of these pathways. The AAVS1 genomic location was chosen due to its characterization as a safe site of integration without any known phenotypic effects. Transfection of the pX330 plasmid, containing the Cas9 and gRNA expression cassettes, is performed by nucleofection or liposome-based techniques. To detect DNA repair by homologous recombination (HR), a donor template is used containing three substitutions, one on the gRNA side of the break and two on the other side of the break, destroying the protospacer adjacent motif (PAM) and thereby limiting cut-recut cycles. A 500 bp amplicon surrounding the break is used for rapid measurement of DSBR errors via the widely used T7 endonuclease I assay. A 201 bp amplicon surrounding the cut site, but outside of the HR template is amplified, purified via E-gel electrophoresis system, converted into Illumina sequencing libraries, quantified via qPCR, and then sequenced at 200,000× read depth. Paired end 150 bp (PE150) reads are obtained, affording a central 100 bp region of high sequence fidelity adjacent to the cut site. The PE150 reads are merged using PEAR and then condensed into a set of unique reads. Unique reads that only occur once are discarded, as they are likely low-quality reads due to sequencing error. These unique, nonsingleton reads are aligned to the reference sequence using pairwise alignment through Python. The indels and substitutions are cataloged relative to the breaksite. […] The profile of deletion sizes and extent of microhomology differs between break sites, likely owing to site dependent availability of microhomology. We utilized the DNA-PKcs inhibitor NU7441 to measure NHEJ inhibition. […]

[2] = system: HAP1 cells; assay: DSBR-seq of a Cas9 break at the AAVS1 locus, HAP1 cells
Source text: (§1) In this Example, transfection of the pX330 plasmid, containing the Cas9 and guide RNA (gRNA) expression cassettes to the AAVS1 safe locus, is used. Genomic DNA (gDNA) is collected 3 days post-transfection. To asses—DNA repair by HR, a donor template containing three substitutions around the protospacer adjacent motif (PAM) which limits cut-recut cycles is transfected also. A 500 bp amplicon surrounding the break is used for rapid measurement of DSBR errors via the widely used T7 endonuclease I assay. A 201 bp amplicon surrounding the cut site, but outside of the HR template is amplified, purified via E-gel electrophoresis system, converted into Illumina sequencing libraries, quantified via qPCR, and then sequenced at 200,000× read depth using paired end 150 bp (PE150) Mi-Seq. Unique, nonsingleton reads (occurring more than once) are aligned to the reference sequence using pairwise alignment (for example using Python). The indels and substitutions are cataloged relative to the break site and microhomology (MH) is determined (for example using an internally developed and validated algorithm, see FIG. 8). The reads are categorized as consequences of NHEJ (≤5 bp deletion) or MMEJ (>5 bp deletion with >2 bp MH). The donor template DNA contains key substitutions—thereby providing a readout of HR. […] The PE150 reads are merged using PEAR and then condensed into a set of unique reads. […]

[3] = system: HCC1937 BRCA1 deficient cell line; assay: DSBR-seq of a Cas9 break at the AAVS1 locus, HCC1937 BRCA1 deficient cells; settings: with or without inhibitor
Source text: as §1

For `O=c1cc(N2CCOCC2)oc2c(-c3cccc4c3sc3ccccc34)cccc12` [NU7441], the “12 base pair deletion with 5 bp of microhomology read” value ([1]; 293T cells) was “enhanced”, the “specific 1 bp deletion read” value ([1]; 293T cells) was “suppressed” and the HR usage ([1]; FIG. 1I) was “increases”. The MMEJ usage ([1]; FIG. 1I) was “increases”, the NHEJ usage ([1]; FIG. 1I) was “suppresses” and the “decrease of the amplitude of the deletion peak” value ([1]; HEK293T cells, DSB at position 120 of amplicon) was “more than 90%”. The “frequency of HR (donor substitution) peaks” value ([1]; HEK293T cells, donor template) was “increased in frequency”, the “width of the deletion peak” value ([1]; HEK293T cells, reflects use of MMEJ) was “increases” and the “12 base pair deletion with 5 bp of microhomology read” value ([2]; HAP1 cells) was “enhanced”. The HR observed [3] was “no HR is observed”.
In the case of `CC(=O)c1c(C)c2cnc(Nc3ccc(N4CCNCC4)cn3)nc2n(C2CCCC2)c1=O` [palbociclib], the “increase of the frequency of introduced errors overall” value ([2]; G1 arrest by the drug) is reported as ~4 fold.
